Here are results for 1 molecule from ChEMBL document CHEMBL6109039, “Designed and synthesized novel tripeptides targeting diabetes and its related pathologies” (Eur J Med Chem, 2025).

What all share (format): functional
For assay [1], the system named is Mus musculus. In words: Antidiabetic activity in Nicotinamide/Streptozotocin induced male Balb/c mouse model assessed as reduction in aspartate transaminase level in blood at 10 mg/kg, po treated for 21 days (reference value: 171 +/- 8.55 U/L). The following applies: time 21 day.
In assay [2] the test system is Mus musculus. Kind of assay: Antidiabetic activity in Nicotinamide/Streptozotocin induced male Balb/c mouse model assessed as Non-HDL-Cholesterol level in blood at 10 mg/kg, po treated for 21 days (reference value: 75 mg/dL). The conditions noted are these: time 21 day.
Assay [3] deals with Mus musculus. In words: Antidiabetic activity in Nicotinamide/Streptozotocin induced male Balb/c mouse model assessed as reduction in alanine aminotransferase level in blood at 10 mg/kg, po treated for 21 days (reference value: 111 +/- 5.05 U/L). The conditions noted are these: time 21 day.
The subject of assay [4] is Mus musculus. In words: Antidiabetic activity in Nicotinamide/Streptozotocin induced male Balb/c mouse model assessed as reduction in fasting blood glucose levels at 10 mg/kg, po measured immediately by glucometer analysis (reference value: 127.50 +/- 6.87 mg/dl).
The test system of assay [5] is Mus musculus. In words: Antidiabetic activity in Nicotinamide/Streptozotocin induced male Balb/c mouse model assessed as change in body weight at 10 mg/kg, po treated for 21 days relative to control. The following applies: time 21 day.
Assay [6] concerns Mus musculus. In words: Antidiabetic activity in Nicotinamide/Streptozotocin induced male Balb/c mouse model assessed as reduction in total cholesterol level in blood at 10 mg/kg, po treated for 21 days (reference value: 121 +/- 6.05 mg/dL). The conditions noted are these: time 21 day.
Assay [7] deals with Mus musculus. In words: Antidiabetic activity in Nicotinamide/Streptozotocin induced male Balb/c mouse model assessed as reduction in HDL-Cholesterol level in blood at 10 mg/kg, po treated for 21 days (reference value: 30 +/- 1.80 mg/dL). The conditions noted are these: time 21 day.
Assay [8] relates to Mus musculus. Kind of assay: Antidiabetic activity in Nicotinamide/Streptozotocin induced male Balb/c mouse model assessed as reduction in LDL-Cholesterol level in blood at 10 mg/kg, po treated for 21 days (reference value: 46 +/- 2.30 mg/dL). The following applies: time 21 day.
Assay [9] has as its system Mus musculus. In words: Antidiabetic activity in Nicotinamide/Streptozotocin induced male Balb/c mouse model assessed as reduction in fasting blood glucose levels at 10 mg/kg, po measured after 14 days by glucometer analysis (reference value: 168.5 +/- 8.42 mg/dl). The conditions noted are these: time 14 day.
For assay [10], the system named is Mus musculus. Kind of assay: Antidiabetic activity in Nicotinamide/Streptozotocin induced male Balb/c mouse model assessed as change in body weight at 10 mg/kg, po measured immediately (reference value: 25.08 +/- 1.25 g).
Assay [11] has as its system Mus musculus. In words: Antidiabetic activity in Nicotinamide/Streptozotocin induced male Balb/c mouse model assessed as reduction in Triglycerides level in blood at 10 mg/kg, po treated for 21 days (reference value: 61 +/- 3.05 mg/dL). The conditions noted are these: time 21 day.
The subject of assay [12] is Mus musculus. In words: Antidiabetic activity in Nicotinamide/Streptozotocin induced male Balb/c mouse model assessed as reduction in fasting blood glucose levels at 10 mg/kg, po measured after 21 days by glucometer analysis (reference value: 180.5 +/- 9.02 mg/dl). The following applies: time 21 day.
Assay [13] deals with Mus musculus. Kind of assay: Antidiabetic activity in Nicotinamide/Streptozotocin induced male Balb/c mouse model assessed as reduction in VLDL-Cholesterol level in blood at 10 mg/kg, po treated for 21 days (reference value: 14 +/- 0.6 mg/dL). The following applies: time 21 day.
The subject of assay [14] is Mus musculus. Kind of assay: Antidiabetic activity in Nicotinamide/Streptozotocin induced male Balb/c mouse model assessed as LDL-Cholesterol/HDL Cholesterol ratio in blood at 10 mg/kg, po treated for 21 days (reference value: 1.53). The following applies: time 21 day.
In assay [15] the test system is Mus musculus. Kind of assay: Antidiabetic activity in Nicotinamide/Streptozotocin induced male Balb/c mouse model assessed as relative liver weight at 10 mg/kg, po treated for 21 days (reference value: 0.77 +/- 0.04 mg/g). The conditions noted are these: time 21 day.
For assay [16], the system named is Mus musculus. Kind of assay: Antidiabetic activity in Nicotinamide/Streptozotocin induced male Balb/c mouse model assessed as change in body weight at 10 mg/kg, po treated for 21 days (reference value: 16.62 +/- 0.83 g). The conditions noted are these: time 21 day.
The subject of assay [17] is Mus musculus. Kind of assay: Antidiabetic activity in Nicotinamide/Streptozotocin induced male Balb/c mouse model assessed as reduction in fasting blood glucose levels at 10 mg/kg, po measured after 7 days by glucometer analysis (reference value: 160.5 +/- 8.02 mg/dl). The conditions noted are these: time 7 day.
Assay [18] deals with Mus musculus. Kind of assay: Antidiabetic activity in Nicotinamide/Streptozotocin induced male Balb/c mouse model assessed as TC/HDL-Cholesterol ratio in blood at 10 mg/kg, po treated for 21 days (reference value: 4.03). The following applies: time 21 day.
The test system of assay [19] is Mus musculus. Kind of assay: Antidiabetic activity in Nicotinamide/Streptozotocin induced male Balb/c mouse model assessed as reduction in HbA1c levels at 10 mg/kg, po treated for 21 days by Turbidimetric inhibition immunoassay. Further details: scale not given: the % may be the effect or the level left. The conditions noted are these: time 21 day.

Structures are written as SMILES.

For `CCC1=C(C)CN(C(=O)NCCc2ccc(S(=O)(=O)NC(=O)N[C@H]3CC[C@H](C)CC3)cc2)C1=O` [GLIMEPIRIDE], the Activity came out at 153 U/L with Mus musculus [1]; 82 mg/dL in the assay on Mus musculus [2]; 97 U/L in the assay with Mus musculus [3]; 109 mg/dL with Mus musculus [4]; 42.69% in the assay with Mus musculus [5]; 108 mg/dL with Mus musculus [6]. The Activity worked out at 37 mg/dL with Mus musculus [7]; 26 mg/dL in the assay on Mus musculus [8]; 108.5 mg/dL in the assay with Mus musculus [9]; 12.94 g in the assay on Mus musculus [10]; 56 mg/dL in the assay with Mus musculus [11]; 111.5 mg/dL in the assay with Mus musculus [12]. In addition, the Activity in the assay with Mus musculus [13] is 12 mg/dL; in the assay on Mus musculus [15], 1.23 mg/g; in the assay on Mus musculus [16], 22.58 g; in the assay with Mus musculus [17], 143.5 mg/dL; with Mus musculus [19] it was 7.1%. Moreover, the Ratio is reported as 0.702 in the assay with Mus musculus [14] and 2.91 in the assay on Mus musculus [18].
